Data: patent US5679638A, “Method for treating a tumor with a chemotherapeutic agent” (Biopure Corporation, priority 1993, dated 1997)
Where “and” joins values, the source holds several entries; their conditions need not be identical. Equal values may be shown once.

Tests used:
FSaIIC fibrosarcoma [1] = assay: FSaIIC fibrosarcoma tumor growth delay; type: in vivo, mouse (male C3H/FeJ mice); settings: for Tumor growth delay, UPHS/Air: UPHS 0.3 ml (12 ml/kg) i.v. immediately before drug; for Tumor growth delay, UPHS/Air / Tumor growth delay, alkylating agent (alone): air breathing; for Increase in tumor growth delay by addition of UPHS: UPHS + drug (air) vs drug alone; for Effect of carbogen breathing on tumor growth delay produced by drug / Tumor growth delay, Carbogen: no UPHS; for Effect of carbogen breathing on tumor growth delay produced by drug: vs drug with air; for Tumor growth delay, Carbogen: drug + carbogen breathing 6 hours; for Tumor growth delay, alkylating agent (alone): drug alone i.p.
Procedure: The FsaII fibrosarcoma (FSaIIC), adapted for growth in culture, was employed. See Rice, L. et al., "The Radiosensitivity of a Murine Fibrosarcoma as Measured by Three Cell Survival Assays", Br. J. Cancer 41:240-245 (1980). 2×10^6 FSaIIC cells, prepared from a brei of several stock tumors, were implanted intramuscularly into the legs of 8- to 10-week old male C3H/FeJ mice (The Jackson Laboratory, Bar Harbor, Me.). When the tumors were approximately 100 mm^3 in volume, 0.3 ml (12 ml/kg; 1.32 gm protein/kg) of UPHS was injected via the tail vein. The UPHS solution was obtained from Biopure Corporation, Boston, Mass. and was a polymerized form of a highly purified bovine hemoglobin solution. It contained 11±2 gm/deciliter of bovine hemoglobin. […] It contained sodium (145 mM/L), chloride (140 mM/L) and potassium (4.0 mM/L) in a buffer solution (pH 7.8±0.4). […] DeVenuto, F., "Evaluation of Human and Bovine Modified-Hemoglobin Solution as Oxygen-Carrying Fluid for Blood Volume Replacement", Biomat. Art. Cells, Art. Org. 16:77-82 (1988); and Winslow, R. M., "Optimal Hematologic Variables for Oxygen Transport Including p50, Hemoglobin Cooperativity, Hematocrit, Acid-Base Atatus, and Cardiac Function", Biomat., Art. Cells and Art. Organs 16:149-172 (1988).
CTX and PAM were purchased as pure powders from Sigma Chemical Company, St. Louis, Miss. […] BCNU (Carmustine) was purchased from the Dana-Farber Cancer Institute Pharmacy.
The mice were allowed to breathe air or were placed in a circulating atmosphere of 95% O2 /5% CO2 (carbogen) for six hours and then removed to air. The progress of each tumor was measured three times weekly until it reached a volume of 500 mm^3. Tumor growth delay was calculated as the days taken by each individual tumor to reach 500 mm^3 compared to the untreated controls. […] Days of tumor growth Relay are the mean ±SE for the treatment group compared to the control.
Statistical comparisons were made with Dunn Multiple Comparisons Test.
The procedures and materials of Example I were employed except that Fluosol-DA was substituted for UPHS. Fluosol-DA was obtained from Alpha Therapeutics Corporation and is an emulsion consisting of […] (w/v) of the following perfluorocarbons: 7 parts perfluorodecalin, 3 parts per perfluorotripropyliamine; Pluronic F-68 (2.7%, w/v); yolk phospholipids (0.4% w/v) as emulsifiers; and glycerol (0.8%, w/v) as a cryoprotective agent. The annex solution (electrolyte/bicarbonate solution) furnished the preparation with physiological osmolarity.
The specific procedures employing Fluosol-DA have been described previously. See Teicher, B. A. et al., "Approaches to Defining the Mechanism of Fluosol-DA 20%/Carbogen Enhancement of Melphalan Antitumor Activity", Cancer Res. 47:513-518 (1987); Teicher, B. A. et al., "Differential Enhancement of Melphalan Cytotoxicity in Tumor and Normal t+Tissue by Fluosol-DA and Oxygen Breathing", Int. J. Cancer 36:585-589 (1985); and Teicher, B. A. et al., "Effects of Various Oxygenation Conditions on the Enhancement by Fluosol-DA of Melphalan Antitumor Activity", Cancer Res. 47:5036-5041 (1987).

[2] = tested on: Lewis lung carcinoma lung metastases; assay: Lung metastases of Lewis lung carcinoma; type: in vivo, mouse (male C57BL); set-up: Lung Metastases: unit not given here
Procedure: The Lewis lung tumor was carried in male C57BL mice (Taconic Laboratories, Germantown, N.Y.). For the experiments, 2×10^6 tumor cells prepared from a brei of several stock tumors were implanted subctaneously into the legs of male mice aged 8-10 weeks. […] Animals bearing Lewis lung tumors were treated daily with intraperitoneal Mino (10 mg/kg), Diflun (15 mg/kg) or Sulin (15 mg/kg) on days 4-18 following tumor implantation. When the tumors had reached a volume of approximately 100 mm^3 (day 7 after tumor cell implantation), cytotoxic therapy was initiated.
Therapy consisted of treatment with an antitumor alkylating agent, an antitumor antimetabolite, a non-steroidal anti-inflammatory drug (NSAID) and/or UPHS. […] CTX therapy consisted of three successive 150 mg/kg CTX doses administered by intraperitoneal injections on days 7, 9 and 11. BCNU therapy consisted of three successive 15 mg/Kg BCNU doses administered by intraperitoneal injections on days 7, 9 and 11. Therapy with the antimetabolite 5-fluorouracil(5-FU) consisted of 4 successive 40 mg/kg 5-FU doses administered by intraperitoneal injections daily on days 7 to 11. The 5-FU was purchased from Sigma Chemical Co., St. Louis, Mo. Fourteen doses of 10 mg/kg of NSAID were administered daily by intraperitoneal injections on days 4 to 18. UPHS was injected into the tail vein in 8 ml/kg doses daily on days 7-11. […]

FSaIIC fibrosarcoma [3] = settings: cited from earlier work
[4] = PAM 10, CTX 150, CDDP 10, BCNU 15 mg/kg
[5] = UPHS + carbogen 6 h + drug vs drug alone

| SMILES | Tumor growth delay, UPHS/Air (FSaIIC fibrosarcoma [1]; [4]) | Increase in tumor growth delay by addition of UPHS (FSaIIC fibrosarcoma [1]) | Effect of carbogen breathing on tumor growth delay produced by drug (FSaIIC fibrosarcoma [1]; carbogen 6 hours) | Tumor growth delay, Carbogen (FSaIIC fibrosarcoma [1]; [4]) | Tumor growth delay, alkylating agent (alone) (FSaIIC fibrosarcoma [1]; [4]) | Increase in tumor growth delay by combination of UPHS and carbogen (FSaIIC fibrosarcoma [1]; mouse, in vivo) | Lung Metastases ([2]; WITH UPHS) | Lung Metastases (% Large) ([2]; WITH UPHS) | Lung Metastases ([2]; WITHOUT UPHS) | Lung Metastases (% Large) ([2]; WITHOUT UPHS) | Tumor growth delay, UPHS/Carbogen (FSaIIC fibrosarcoma [1]; UPHS 12 ml/kg i.v. + drug + carbogen breathing 6 hours, PAM 10, CTX 150, CDDP 10, BCNU 15 mg/kg) | Increase in tumor growth delay by combination of UPHS and carbogen (FSaIIC fibrosarcoma [1]; [5]) | Tumor growth delay, with Fluosol-DA and carbogen (FSaIIC fibrosarcoma [1]; CTX 150 mg/kg + Fluosol-DA, carbogen 6 hours) | Duration of carbogen breathing necessary for significant enhancement of growth delay (FSaIIC fibrosarcoma [3]; FSaIIC, CTX) | Tumor growth delay, with Fluosol-DA and air breathing (FSaIIC fibrosarcoma [1]; PAM 10 mg/kg + Fluosol-DA, air) | Effect of extending carbogen breathing to 6 hours on tumor growth delay (FSaIIC fibrosarcoma [3]; PAM + Fluosol-DA, carbogen 6 hours) | Tumor growth delay, PAM prepared in Fluosol-DA as a vehicle (FSaIIC fibrosarcoma [3]; PAM in Fluosol-DA vehicle, carbogen breathing) |
| --- | --- | --- | --- | --- | --- | --- | --- | --- | --- | --- | --- | --- | --- | --- | --- | --- | --- |
| O=NN(CCCl)C(=O)NCCCl [BCNU, N,N-bis(2-chloroethyl)-N-nitrosourea] | 3.8 ± 0.5 days | 1.5 fold | increased the tumor growth delay produced by BCNU to a small degree | 3.3 ± 0.3 days | 2.5 ± 0.3 days and 2.5 days | 2.3 fold | 9 | 61% | 15.5 | 53% | – | – | – | – | – | – | – |
| N.N.[Cl][Pt][Cl] [CDDP, cis-diaminodichloroplatinum(II)] | 9.6 ± 1.1 days | 1.3 fold | no significant effect on the tumor growth delay | 7.6 ± 0.3 days | 7.4 ± 0.8 days and 7.4 days | – | 13 | 40% | 13 | 58% | 14.1 ± 1.6 days and 14.1 days | 1.9 fold | – | – | – | – | – |
| O=P1(N(CCCl)CCCl)NCCCO1 (stereo not shown) [CTX, Cyclophosphamide] | 7.4 days and 7.4 ± 0.7 days | 2.1 fold | small increase in the tumor growth delay | 5.0 ± 0.5 days | – | – | 8 | 40% | 12 | 40% | – | 4.6 fold | about 12 days | Six hours of carbogen breathing are necessary to obtain a significant enhancement in the growth delay | – | – | – |
| N[C@@H](Cc1ccc(N(CCCl)CCCl)cc1)C(=O)O [PAM, Melphalan] | – | 2.2 fold | small increase in tumor growth delay | 4.0 ± 0.6 days | – | – | 10 | 50% | 13 | 48% | – | 3.6 fold | – | – | about 6.5 days | did not alter the tumor growth delay | about 29.5 days |
